{"source": "patent US6488966B2", "about": "“Composition and method for reducing the risk of carcinogenesis” (The Trustees of Dartmouth College, priority 1998, dated 2002)", "key": {"colorectal adenomas": {"tested_on": "colorectal adenomas", "text": "Dartmouth was the coordinating center and the University of Minnesota was the pathology center. Human subjects committees at each center approved the study protocol; an independent safety and data monitoring committee reviewed the study semi-annually.\nStaff at each clinical center monitored colonoscopy and pathology records at associated endoscopy units to identify patients with at least one histologically-confirmed large bowel adenoma removed within three months of recruitment, and with the entire large bowel mucosa subsequently examined and judged free of remaining polyps.\n(§1) We reviewed data from 2,918 apparently eligible patients. […] The trial was double-blind; neither subjects nor study staff were told the subjects' treatment assignments.\nSubjects received two follow-up colonoscopies as part of their routine clinical care, generally by the same physician who conducted the qualifying exam. The first follow-up examination was planned for approximately one year after the qualifying colonoscopy (about nine months after randomization), and a second follow-up examination was planned for thirty-six months after that. Large bowel endoscopy was otherwise discouraged unless clinically indicated (e.g., for rectal bleeding). Follow-up examinations were considered “adequate” if the entire large bowel mucosa was visualized, and no polyps remained at the end of the procedure. We designated the time from randomization to the first follow-up exam as the first study interval, and the period after the first follow-up exam up to (and including) the second follow-up colonoscopy as the second study interval.\nAt each colonoscopy, the endoscopist recorded the size and location of all mucosal lesions, using standard clinical technique. […] In cases of disagreement, we accepted the study pathologist's diagnosis.\nThe primary endpoint of the trial was the proportion of subjects having at least one adenoma detected during the second study interval, i.e., after the first follow-up colonoscopy, up to and including the second follow-up examination (including adenomas detected during interim endoscopies).\n(§2) For our statistical analyses, we compared proportions using Fisher's exact test, and measured data using t-tests or rank tests (Snedecor and Cochran, Statistical Methods, Seventh Edition, Ames: Iowa State University Press, 1980). […] To address the first issue, we used overdispersed log-linear quasi-likelihood models programmed in SPlus (Seattle) to provide unadjusted and adjusted estimates and confidence intervals for the relative risk of at least one recurrent adenoma (McCullagh and Nelder, Generalized Linear Models (Second Edition), Chapman-Hall, 1989). […] Co-variates included age (linear term), gender, the lifetime number of adenomas before study entry, clinical center, and the length of the surveillance interval. Possible interactions were considered using product interaction terms. Subgroup analyses included investigation of subjects above and below the median of the calorie-adjusted intake (Willet, Nutritional Epidemiology, Oxford University Press, 1990) of selected nutrients. […] All P-values were two-sided."}, "[1]": {"protocol": "as §1\nAt enrollment and at the time of each of the two follow-up colonoscopies, we obtained venous blood specimens in mineral-free tubes. Serum was initially stored at −20° C. or lower, pending shipment to Dartmouth for storage at −70° C. until analysis. At enrollment and the end of the study, we also assessed subjects' diet with a validated food frequency questionnaire (Block et al., Am. J. Epidemiol., 124:453-69, 1986). Every six months, we sent patients questionnaires regarding adherence to study agents; use of medications, over-the-counter drugs and nutritional supplements; and the occurrence of symptoms, illnesses, and hospitalizations. Recruitment into the study began in November 1988 and ended in April 1992. Follow-up ended in December 1996.\nas §2"}, "[2]": {"details": "at least one endoscopy, study exams"}, "[3]": {"details": "at or before the first follow-up"}, "[4]": {"details": "calcium vs placebo, 913 subjects with at least one study colonoscopy"}, "[5]": {"details": "calcium vs placebo, completed the study, 2nd study interval"}, "[6]": {"details": "calcium vs placebo, completed the trial, first study interval"}, "[7]": {"details": "calcium vs placebo, second study interval"}, "[8]": {"details": "completed the study, 1st or 2nd study interval"}, "[9]": {"details": "completed the study, 1st study exam"}, "[10]": {"details": "completed the study, 2nd study exam"}, "[11]": {"details": "completed the study, 2nd study interval (main risk period)"}}, "note": "Like-named read-outs stand apart in the source and are kept apart here."}
{"compound": "O=C([O-])[O-].[Ca+2]", "note": "[calcium, calcium carbonate]", "values": [{"measurement": "Mean number of adenomas", "setting": "colorectal adenomas; at least one endoscopy, 1st or 2nd interval", "result": 0.92}, {"measurement": "% with one or more adenomas", "setting": "colorectal adenomas; [2]", "result": 42.3, "unit": "%"}, {"measurement": "Mean number of adenomas", "setting": "colorectal adenomas; [2]", "result": 0.86}, {"measurement": "participants with an adenoma with severe atypia removed", "setting": "colorectal adenomas; [3]", "result": "one"}, {"measurement": "patients with invasive cancer", "setting": "colorectal adenomas; [3]", "result": 2}, {"measurement": "Ratio of the mean number of adenomas", "setting": "colorectal adenomas; calcium vs placebo, adjusted, completed the study (832 subjects), 2nd study interval", "result": 0.76}, {"measurement": "unadjusted ratio of the average numbers of adenomas", "setting": "colorectal adenomas; [4]", "result": 0.74}, {"measurement": "unadjusted risk ratio of at least one adenoma after randomization", "setting": "colorectal adenomas; [4]", "result": 0.85}, {"measurement": "unadjusted ratio of the average number of adenomas", "setting": "colorectal adenomas; [5]", "result": 0.75}, {"measurement": "unadjusted risk ratio for at least one adenoma", "setting": "colorectal adenomas; [5]", "result": 0.83}, {"measurement": "unadjusted ratio of the average numbers of adenomas", "setting": "colorectal adenomas; [6]", "result": 0.73}, {"measurement": "unadjusted risk ratio for at least one adenoma", "setting": "colorectal adenomas; [6]", "result": 0.77}, {"measurement": "unadjusted risk ratio for at least one adenoma 0.5 cm or greater versus no adenomas", "setting": "colorectal adenomas; [7]", "result": 0.87}, {"measurement": "unadjusted risk ratio, largest adenoma less than 0.5 cm versus no adenomas", "setting": "colorectal adenomas; [7]", "result": 0.75}, {"measurement": "% with one or more adenomas", "setting": "colorectal adenomas; [8]", "result": 44.7, "unit": "%"}, {"measurement": "Mean number of adenomas", "setting": "colorectal adenomas; [8]", "result": 0.98}, {"measurement": "% with one or more adenomas", "setting": "colorectal adenomas; [9]", "result": 24.4, "unit": "%"}, {"measurement": "Mean number of adenomas", "setting": "colorectal adenomas; [9]", "result": 0.40}, {"measurement": "Mean number of adenomas", "setting": "colorectal adenomas; completed the study, 1st study interval", "result": 0.43}, {"measurement": "% with one or more adenomas", "setting": "colorectal adenomas; [10]", "result": 30.1, "unit": "%"}, {"measurement": "Mean number of adenomas", "setting": "colorectal adenomas; [10]", "result": 0.51}, {"measurement": "mean size of the largest adenoma", "setting": "colorectal adenomas; completed the study, 2nd study interval", "result": 0.4, "unit": "cm"}, {"measurement": "% with one or more adenomas", "setting": "colorectal adenomas; [11]", "result": 31.1, "unit": "%"}, {"measurement": "Mean number of adenomas", "setting": "colorectal adenomas; [11]", "result": 0.55}, {"measurement": "% with one or more adenomas", "setting": "colorectal adenomas; completed the study, 2nd study interval (main risk period), listed as CALCIUM", "result": 31.1, "unit": "%"}, {"measurement": "number of patients with at least one colorectal adenoma", "setting": "colorectal adenomas; completed the study, main risk period (2nd study interval)", "result": 127}, {"measurement": "number of subjects with at least one adenoma", "setting": "colorectal adenomas; completed the trial, up to and including the first follow-up exam", "result": 103}, {"measurement": "adenomas with severe atypia removed", "setting": "colorectal adenomas; during the main risk period", "result": "no adenomas with severe atypia were removed"}, {"measurement": "subjects with invasive large bowel cancer", "setting": "colorectal adenomas; during the main risk period", "result": 1}, {"measurement": "subjects whose largest adenoma was less than 0.5 cm", "setting": "colorectal adenomas; second study interval", "result": 70}, {"measurement": "subjects with an adenoma 0.5 cm or greater", "setting": "colorectal adenomas; second study interval", "result": 57}, {"measurement": "% with one or more adenomas", "setting": "colorectal adenomas; subjects who completed the study (409 calcium), 1st study interval (randomization to first follow-up colonoscopy)", "result": 25, "unit": "%"}, {"measurement": "% with one or more adenomas", "setting": "colorectal adenomas; subjects who completed the study (409 calcium), 1st study interval (randomization to first follow-up colonoscopy), listed as CALCIUM", "result": 25.2, "unit": "%"}, {"measurement": "% with one or more adenomas", "setting": "colorectal adenomas; subjects who had at least one endoscopy (454 calcium), 1st or 2nd interval", "result": 43.2, "unit": "%"}, {"measurement": "Hospitalized: All cancer, %", "setting": "[1]; after randomization", "result": "(3.2) %"}, {"measurement": "Hospitalized: Cardiac disease, %", "setting": "[1]; after randomization", "result": "(10.8) %"}, {"measurement": "Hospitalized: Gastrointestinal disease, %", "setting": "[1]; after randomization", "result": "(8.2) %"}, {"measurement": "Hospitalized: Other, %", "setting": "[1]; after randomization", "result": "(27.2) %"}, {"measurement": "Hospitalized: Stroke, %", "setting": "[1]; after randomization", "result": "(2.6) %"}, {"measurement": "Stopped treatment because of perceived toxicity, %", "setting": "[1]; after randomization", "result": "(2.6) %"}, {"measurement": "patients diagnosed with definite or probable urinary stones", "setting": "[1]; after randomization", "result": "Two"}, {"measurement": "Subjects Hospitalized, %", "setting": "[1]; after randomization, any reason", "result": "(37.1) %"}, {"measurement": "toxicity (in words)", "setting": "[1]; calcium supplementation during the trial, listed as calcium carbonate", "result": "minimal"}, {"measurement": "frequency of digestive symptoms (including constipation)", "setting": "[1]; calcium vs placebo", "result": "did not differ materially"}, {"measurement": "medical complaints and complications (in words)", "setting": "[1]; calcium vs placebo", "result": "not associated with treatment assignment"}]}
